The values that follow come from patent US20040063790A1, “Methods for inhibition of angiogenesis” (The Scripps Research Institute, priority 1996, published 2004).

The test system of series [1] is bFGF-induced angiogenesis. Briefly: CAM assay, growth factor-induced angiogenesis, intravenous application. Type of series: in vivo, chick. The settings on record: for anti-angiogenic properties (branch points): FIG. 27, 100 μg/embryo, compared to bFGF control and compound 16; for inhibition of formation of new blood vessels induced by bFGF: 250 μg/ml, 18 hours after bFGF treatment, FIG. 12; for reducing the number of branch points of new blood vessels: FIG. 26, in decreasing order of inhibition 14, 10, 9, 12, compared to bFGF control and compound 7. As for the experimental part: J. Pathol., 79:597 (1975). CAMs were prepared from chick embryos for subsequent induction of angiogenesis and inhibition thereof as described in Examples 4 and 5, respectively. Ten day old chick embryos were obtained from McIntyre Poultry (Lakeside, Calif.) and incubated at 37° C. with 60% humidity. A small hole was made through the shell at the end of the egg directly over the air sac with the use of a small crafts drill (Dremel, Division of Emerson Electric Co. Racine Wis.). A second hole was drilled on the broad side of the egg in a region devoid of embryonic blood vessels determined previously by candling the egg. […] A 1.0 centimeter (cm)×1.0 cm square window was cut through the shell over the dropped CAM with the use of a small model grinding wheel (Dremel). The small window allowed direct access to the underlying CAM.
Angiogenesis was induced by placing a 5 millimeter (mm)×5 mm Whatman filter disk (Whatman Filter paper No.1) saturated with Hanks Balanced Salt Solution (HBSS, GIBCO, Grand Island, N.Y.) or HBSS containing 150 nanograms/milliliter (ng/ml) recombinant basic fibroblast growth factor (bFGF) (Genzyme, Cambridge, Mass.) on the CAM of a 10-day chick embryo in a region devoid of blood vessels and the windows were latter sealed with tape. In other assays, 125 ng/ml bFGF was also effective at inducing blood vessel growth. For assays where inhibition of angiogenesis ws evaluated with intravenous injections of antagonists, angiogenesis was first induced with 1-2 μg/ml bFGF in fibroblast growth medium. Angiogenesis was monitored by photomicroscopy after 72 hours. CAMs were snap frozen, and 6 um cryostat sections were fixed with acetone and stained by immunofluorescence as described in Example 3C with 10 μg/ml of either anti-β1 monoclonal antibody CSAT or LM609.
For CAM preparations in which angiogenesis was induced with 1-2 μg/ml bFGF as previously described, synthetic peptides 69601 (control) and 66203 (SEQ ID NO: 5) were separately intravenously injected into CAM preparations 18 hours after bFGF induction of angiogenesis. The preparations were maintained for an additional 36-40 hours after which time the number of branch points were determined as previously described.
In other assays, peptide 85189 (SEQ ID NO: 15) was evaluated for inhibiting bFGF-induced angiogenesis in the CAM assay over a dosage range of 10 μg/embryo to 300 μg/embryo. The assay was performed as previously described.
In still further assays, peptide 85189 was compared to peptides 69601 and 66203 for anti-angiogenesis activity. The assay was performed as described above with the exception that 50 μg peptide were used.
The effectiveness of the different salt formulations of peptide 85189 was also evaluated in similar bFGF-induced CAM assays. The peptides were used at 100 μg/embryo. […] Untreated CAMs, labeled as “no cytokine” had approximately […] as many branch points as that seen with bFGF treatment, respectively 70 versus 190.
With the above-described protocol, the effect of MMP-2 fusion proteins, CTMMP-2(2-4), also referred to as CTMMP-2(445-467) and CTMMP-2(10-1), also referred to as CTMMP-2(274-637) was also evaluated. The assay was performed as previously described with the exception that 50 μg of fusion protein was administered to the bFGF-treated embryos. The effect of fusion protein treatment was assessed at 24 hours, 48 hours and 72 hours.
The 10 day old CAM preparation was used as previously described in Example 5A. Twenty-four hours after bFGF-induced angiogenesis was initiated, the organic peptidomimetics referred to as compounds 16 (81218), 17 (87292) and 18 (87293) were separately intravenously injected into the CAM preparation in a volume of 100 μl at a concentration of 1 mg/ml (100 μg/embryo) in 20% tetraglycol-PBS at pH 7.0. In parallel assays, compounds 7 (96112), 9 (99799), 10 (96229), 12 (112854) and 14 (96113) were similarly evaluated. […]

Series [2] has as its target T1, αvβ3 (Homo sapiens, UniProt P05106+P06756).
T1 construct: selected purified integrins were separately immobilized in Titertek microtiter wells
Briefly: Ligand-receptor binding assay, immobilized αvβ3. The settings on record: for preference of inhibition of fibrinogen binding, αvβ3 versus αIIbβ3: comparison of half-maximal concentrations of Table 2. The text has this: (§1) Herein described is a method of identifying antagonists in a ligand-receptor binding assay in which the receptor is immobilized to a solid support and the ligand and antagonist are soluble. Also described is a ligand-receptor binding assay in which the ligand is immobilized to a solid support and the receptor and antagonists are soluble.
(§2) Briefly, selected purified integrins were separately immobilized in Titertek microtiter wells at a coating concentration of 50 nanograms (ng) per well. The purification of the receptors used in the ligand-receptor binding assays are well known in the art and are readily obtainable with methods familiar to one of ordinary skill in the art. After incubation for 18 hours at 4° C., nonspecific binding sites on the plate were blocked with 10 milligrams/milliliter (mg/ml) of bovine serum albumin (BSA) in Tris-buffered saline. […] Radiolabeled ligands were used at concentrations of 1 nM and binding was challenged separately with unlabeled synthetic peptides.
(§3) Following a three hour incubation, free ligand was removed by washing and bound ligand was detected by gamma counting. […] The IC50 data in micromoles (IC50 μM) are expressed as the average of duplicate data points±the standard deviation as shown in Table 2.

The target of series [3] is T2, αIIbβ3 (Homo sapiens, UniProt P05106+P08514).
T2 construct: selected purified integrins were separately immobilized in Titertek microtiter wells
T2 sequence (P08514 32-887 limits assumed): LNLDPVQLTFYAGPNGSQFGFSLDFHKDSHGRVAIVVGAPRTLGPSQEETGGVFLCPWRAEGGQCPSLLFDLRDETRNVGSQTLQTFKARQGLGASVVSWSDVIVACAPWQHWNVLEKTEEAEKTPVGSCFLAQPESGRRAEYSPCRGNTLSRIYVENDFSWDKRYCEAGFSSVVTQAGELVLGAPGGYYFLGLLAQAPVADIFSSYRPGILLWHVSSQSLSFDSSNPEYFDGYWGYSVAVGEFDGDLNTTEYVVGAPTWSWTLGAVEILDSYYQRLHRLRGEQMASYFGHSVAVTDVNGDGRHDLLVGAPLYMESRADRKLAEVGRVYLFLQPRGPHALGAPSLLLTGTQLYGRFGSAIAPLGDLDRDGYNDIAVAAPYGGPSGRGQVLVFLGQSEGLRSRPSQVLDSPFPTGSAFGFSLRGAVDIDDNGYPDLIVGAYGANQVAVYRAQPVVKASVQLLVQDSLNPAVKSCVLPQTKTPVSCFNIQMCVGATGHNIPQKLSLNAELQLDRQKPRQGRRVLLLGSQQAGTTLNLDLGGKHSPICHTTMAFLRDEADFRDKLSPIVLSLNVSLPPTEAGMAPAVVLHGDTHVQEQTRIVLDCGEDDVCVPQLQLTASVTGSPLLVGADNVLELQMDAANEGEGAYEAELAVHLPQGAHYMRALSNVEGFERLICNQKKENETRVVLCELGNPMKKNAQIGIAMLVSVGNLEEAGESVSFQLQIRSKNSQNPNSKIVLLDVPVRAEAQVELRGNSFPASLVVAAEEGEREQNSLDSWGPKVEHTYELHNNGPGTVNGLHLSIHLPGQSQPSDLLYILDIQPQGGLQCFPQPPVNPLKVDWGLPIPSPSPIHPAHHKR
T2 sequence (P08514 891-1039 partner limits assumed): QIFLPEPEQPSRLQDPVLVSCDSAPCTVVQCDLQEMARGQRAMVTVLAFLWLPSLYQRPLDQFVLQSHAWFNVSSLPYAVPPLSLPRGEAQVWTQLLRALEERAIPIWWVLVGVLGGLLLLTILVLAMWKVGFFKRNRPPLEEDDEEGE
T2 sequence (P05106 27-788): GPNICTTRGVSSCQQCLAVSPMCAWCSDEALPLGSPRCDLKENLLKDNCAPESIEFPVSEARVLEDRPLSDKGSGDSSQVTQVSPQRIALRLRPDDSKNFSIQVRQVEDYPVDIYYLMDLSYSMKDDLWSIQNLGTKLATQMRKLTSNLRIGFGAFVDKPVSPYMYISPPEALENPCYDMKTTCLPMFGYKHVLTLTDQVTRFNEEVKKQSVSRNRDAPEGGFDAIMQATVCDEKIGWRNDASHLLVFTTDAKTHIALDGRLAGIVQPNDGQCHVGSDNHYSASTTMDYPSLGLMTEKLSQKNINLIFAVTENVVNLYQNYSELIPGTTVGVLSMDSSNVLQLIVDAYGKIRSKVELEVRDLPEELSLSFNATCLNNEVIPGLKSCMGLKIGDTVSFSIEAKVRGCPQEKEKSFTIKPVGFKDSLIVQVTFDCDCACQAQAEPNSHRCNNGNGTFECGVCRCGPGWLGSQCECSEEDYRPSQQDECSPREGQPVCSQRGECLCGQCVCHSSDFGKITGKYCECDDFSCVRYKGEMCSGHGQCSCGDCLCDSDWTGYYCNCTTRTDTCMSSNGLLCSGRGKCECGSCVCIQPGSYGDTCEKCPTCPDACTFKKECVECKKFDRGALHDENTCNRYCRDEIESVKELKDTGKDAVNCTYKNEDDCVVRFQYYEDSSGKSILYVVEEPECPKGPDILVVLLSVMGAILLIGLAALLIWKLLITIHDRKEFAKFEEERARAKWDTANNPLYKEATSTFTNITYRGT
The series is described as follows: Ligand-receptor binding assay, immobilized αIIbβ3.
Excerpt: as §1, §2, §3

Where [4] appears, read: radiolabeled fibrinogen, average of duplicate data points ± standard deviation, read-out: αvβ3 (IC50 μM).
Setting [5] is: radiolabeled fibrinogen, average of duplicate data points ± standard deviation, read-out: αIIbβ3 (IC50 μM).

Where two headings read alike, the source gives them in different places. Where a SMILES comes first, the peptide text is derived from it. [ ]: non-standard residue; d: D form.

T1 sequence (P06756 31-889 limits assumed): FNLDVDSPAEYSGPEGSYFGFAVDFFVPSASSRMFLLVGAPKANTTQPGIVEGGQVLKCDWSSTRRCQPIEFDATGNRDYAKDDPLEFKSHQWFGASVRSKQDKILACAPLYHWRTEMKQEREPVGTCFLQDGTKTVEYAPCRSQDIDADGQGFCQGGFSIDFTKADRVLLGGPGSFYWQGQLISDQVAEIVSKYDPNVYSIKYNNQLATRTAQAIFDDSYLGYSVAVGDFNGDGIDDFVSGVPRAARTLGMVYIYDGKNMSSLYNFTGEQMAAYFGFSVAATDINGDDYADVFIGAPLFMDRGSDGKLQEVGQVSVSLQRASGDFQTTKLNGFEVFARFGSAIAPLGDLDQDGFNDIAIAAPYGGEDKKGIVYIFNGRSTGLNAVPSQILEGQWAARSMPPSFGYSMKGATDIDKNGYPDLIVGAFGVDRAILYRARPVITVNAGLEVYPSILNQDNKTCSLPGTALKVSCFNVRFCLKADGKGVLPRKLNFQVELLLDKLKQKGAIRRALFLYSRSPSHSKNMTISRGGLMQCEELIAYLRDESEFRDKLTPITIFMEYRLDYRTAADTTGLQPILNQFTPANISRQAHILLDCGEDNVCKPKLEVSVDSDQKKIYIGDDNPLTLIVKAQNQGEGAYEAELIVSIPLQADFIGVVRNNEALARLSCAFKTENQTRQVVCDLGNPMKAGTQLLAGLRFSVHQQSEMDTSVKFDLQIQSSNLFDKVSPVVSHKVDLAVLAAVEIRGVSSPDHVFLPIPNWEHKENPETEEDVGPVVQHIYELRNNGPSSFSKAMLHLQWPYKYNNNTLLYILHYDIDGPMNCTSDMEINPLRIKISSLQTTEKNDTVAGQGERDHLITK
T1 sequence (P06756 891-1048 partner limits assumed): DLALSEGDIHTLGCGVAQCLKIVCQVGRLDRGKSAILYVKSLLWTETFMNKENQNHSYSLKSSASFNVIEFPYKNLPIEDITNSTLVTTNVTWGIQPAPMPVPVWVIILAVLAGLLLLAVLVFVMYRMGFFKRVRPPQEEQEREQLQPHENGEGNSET
T1 sequence (P05106 27-788): as the sequence (P05106 27-788) above

With `CCS(=O)(=O)NC(Cc1ccc(OCC2CN(c3ccc(C(=N)N)cc3)C(=O)O2)cc1)C(=O)O` (centres unmarked) [Compound 18, 3-(4-amidinophenyl)-5-(4-(2-carboxy-2-N-ethyl-sulfonylaminoethyl)phenoxy)methyl-2-oxazolidinone], the “anti-angiogenic properties (branch points)” value in series [1] is “exhibited anti-angiogenic properties”.

For orientation: melting point means the temperature, or range, at which the solid turns liquid. For the compound `CCCCS(=O)(=O)N[C@H](Cc1ccc(OCCCCNC(=N)N)cc1)C(=O)O` [Compound 10], the melting point was found to be 70 °C. Further, in series [1], the “inhibition of formation of new blood vessels induced by bFGF” value is on record as “almost completely inhibited” and the “reducing the number of branch points of new blood vessels” value (shortened to “reducing the number”) is on record as “effective at reducing the number of branch points”. For `CCCCS(=O)(=O)N[C@@H](Cc1ccc(OCCCCNC(=N)N)cc1)C(=O)O` [Compound 7], the melting point came to 70 °C.

Take `CC1(C)C2CCC1(CS(=O)(=O)N[C@@H](Cc1ccc(OCCCCNC(=N)N)cc1)C(=O)O)C(=O)C2` (some centres unmarked) [Compound 12]: in series [1], the “reducing the number” value is given as “effective at reducing the number of branch points”. For `CC(C)[C@@H]1NC(=O)[C@@H](Cc2ccccc2)NC(=O)[C@H](CC(=O)O)NC(=O)[C@H](C)NC(=O)[C@H](CCCNC(=N)N)NC1=O` [Peptide 62185, cyclo (RADfV)] (cyclo(RAD[dF]V)), the “preference of inhibition of fibrinogen binding, αvβ3 versus αIIbβ3” value (from here on “preference of inhibition … αvβ3 versus αIIbβ3”) in series [2] is reported as “preferential inhibition of fibrinogen binding to the αvβ3 receptor”.

The term IC50 denotes the concentration that gives 50% inhibition. As for `CC(C)[C@@H]1NC(=O)[C@H](Cc2ccccc2)NC(=O)[C@H](CC(=O)O)NC(=O)CNC(=O)[C@@H](CCCNC(=N)N)NC(=O)CNC1=O` [Peptide 62181, cyclo (GrGDFV)] (cyclo(G[dR]GDFV)), in series [2], the “preference of inhibition … αvβ3 versus αIIbβ3” value was “preferential inhibition of fibrinogen binding to the αvβ3 receptor”. In addition, the values for the concentration for half-maximal inhibition (IC50) in series [2] (setting [4]) and in series [3] (setting [5]) were 1.96 ± 0.62 µM and 15 ± 7.84 µM, respectively. As for `CC(C)[C@@H]1NC(=O)[C@@H](Cc2ccccc2)NC(=O)[C@H](CC(=O)O)NC(=O)[C@H](C)NC(=O)[C@H](CCCN=C(N)N)NC1=O` [Peptide 62185, cyclo (RADfV)] (cyclo(AD[dF]VR)), the IC50 is 0.885 ± 0.16 µM in series [2] (setting [4]) and 100 ± 0.001 µM in series [3] (setting [5]).

For `CC(C)C[C@H](NC(=O)[C@H](C)NC(=O)[C@H](CCC(=O)O)NC(=O)[C@H](CC(N)=O)NC(=O)[C@H](CC(N)=O)NC(=O)[C@H](CCCNC(=N)N)NC(=O)[C@@H](NC(=O)[C@@H](NC(=O)CN)C(C)C)C(C)C)C(=O)N[C@@H](C)C(=O)N[C@@H](CCCNC(=N)N)C(=O)N[C@@H](CC(C)C)C(=O)N[C@@H](CO)C(=O)O` [Peptide 62503] (H-GVVRNNEALARLS-OH), the IC50 in series [2] (fibrinogen, individual assay, read-out: αvβ3 IC50 (μM) FG) was over 100 µM; in series [3] (fibrinogen, individual assay, read-out: αIIbβ3 IC50 (μM) FG) it was over 100 µM; in series [3] (vitronectin, individual assay, read-out: αIIbβ3 IC50 (μM) VN), over 100 µM. Take `CCCCS(=O)(=O)N[C@@H](Cc1ccc(OCCCCCNC(=N)N)cc1)C(=O)O` [Compound 14]: in series [1], the “inhibition of formation of new blood vessels induced by bFGF” value is reported as “almost completely inhibited” and the “reducing the number” value was “effective at reducing the number of branch points”.

`CCCS(=O)(=O)NC(Cc1ccc(OCC2CN(c3ccc(C(=N)N)cc3)C(=O)O2)cc1)C(=O)O` (centres unmarked) [Compound 17, 3-(4-amidinophenyl)-5-(4-(2-carboxy-2-N-propyl-sulfonylaminoethyl)phenoxy)methyl-2-oxazolidinone]: the “anti-angiogenic properties (branch points)” value in series [1] is “exhibited anti-angiogenic properties”.

Turning to `CC(C)(C)OC(=O)N[C@@H](Cc1ccc(OCCCCNC(=N)N)cc1)C(=O)O` [Compound 9], in series [1], the “reducing the number” value was “effective at reducing the number of branch points”. Regarding `CC(C)C[C@@H]1NC(=O)[C@@H](Cc2ccccc2)NC(=O)[C@H](CC(=O)O)NC(=O)CNC(=O)[C@H](CCCNC(=N)N)NC(=O)CNC1=O` [Peptide 62179, cyclo (GRGDfL)] (cyclo(GRGD[dF]L)), the “preference of inhibition … αvβ3 versus αIIbβ3” value in series [2] is given as “either not as effective in blocking fibrinogen binding to αvβ3 or exhibited preferential inhibition of fibrinogen binding to αIIbβ3”. Moreover, the concentration for half-maximal inhibition (IC50) in series [2] (setting [4]) was found to be 0.395 ± 0.21 µM; in series [3] (setting [5]) it was 0.055 ± 0.007 µM. Take `CC(C)C[C@@H]1NC(=O)[C@@H](Cc2ccccc2)NC(=O)[C@H](CC(=O)O)NC(=O)CNC(=O)[C@H](CCCNC(=N)N)NC(=O)[C@H](C)NC1=O` [Peptide 62175, cyclo (ARGDfL)] (cyclo(ARGD[dF]L)): the “preference of inhibition … αvβ3 versus αIIbβ3” value in series [2] is given as “either not as effective in blocking fibrinogen binding to αvβ3 or exhibited preferential inhibition of fibrinogen binding to αIIbβ3”. Besides, the values for the concentration for half-maximal inhibition (IC50) in series [2] (setting [4]) and in series [3] (setting [5]) were 1.05 ± 0.07 µM and 0.63 ± 0.18 µM, respectively.

Regarding `Cl.Cl.N=C(N)c1ccc(N2CC(COc3ccc(CC(N)C(=O)O)cc3)OC2=O)cc1` (centres unmarked), the melting point was 165 °C (dec.). As to `CSCC[C@H](NC(=O)[C@@H]1CCCN1C(=O)[C@H](CC(N)=O)NC(=O)CNC(=O)[C@H](CC(C)C)NC(=O)[C@H](CC(=O)O)NC(=O)[C@H](CS)NC(=O)[C@@H](NC(=O)[C@@H](NC(=O)[C@H](CCC(N)=O)NC(=O)[C@H](CCCNC(=N)N)NC(=O)[C@@H](N)[C@@H](C)O)C(C)C)C(C)C)C(=O)O` [Peptide 62411] (H-TRQVVCDLGNPM-OH), the IC50 in series [2] was over 100 µM; in series [3], over 100 µM; in series [3] (read-out: αIIbβ3 IC50 (μM) VN, vitronectin, individual assay) it was over 100 µM.
